Results from US12077555B2, “STAT degraders and uses thereof” (Kymera Therapeutics, Inc., priority 2019, dated 2024).
Where two headings read alike, the source gives them in different places.

Target: STAT3 (Homo sapiens, UniProt P40763)
Test: STAT3 HiBiT degradation assay in transfected A549 cells
Assay type: cell-based
Design: expressed in transfected cells; host or cells: A549
Outline: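 Degradation read as HiBiT-tagged STAT3 luminescence (Nano-Glo lytic reagent, 10 min, room temperature) following 24 h compound treatment of transfected A549 cells at 3-fold, 10 points. Percent remaining signal computed against controls and fitted with a four-parameter logistic; DC50 reported as letter bins (A <0.01 to D >1.0 µM).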

[1] = A549, 24 h; read-out: STAT3 HiBiT A549 degradation 24 h: Average external-Abs DC50

Chain of STAT3 (P40763 whole entry): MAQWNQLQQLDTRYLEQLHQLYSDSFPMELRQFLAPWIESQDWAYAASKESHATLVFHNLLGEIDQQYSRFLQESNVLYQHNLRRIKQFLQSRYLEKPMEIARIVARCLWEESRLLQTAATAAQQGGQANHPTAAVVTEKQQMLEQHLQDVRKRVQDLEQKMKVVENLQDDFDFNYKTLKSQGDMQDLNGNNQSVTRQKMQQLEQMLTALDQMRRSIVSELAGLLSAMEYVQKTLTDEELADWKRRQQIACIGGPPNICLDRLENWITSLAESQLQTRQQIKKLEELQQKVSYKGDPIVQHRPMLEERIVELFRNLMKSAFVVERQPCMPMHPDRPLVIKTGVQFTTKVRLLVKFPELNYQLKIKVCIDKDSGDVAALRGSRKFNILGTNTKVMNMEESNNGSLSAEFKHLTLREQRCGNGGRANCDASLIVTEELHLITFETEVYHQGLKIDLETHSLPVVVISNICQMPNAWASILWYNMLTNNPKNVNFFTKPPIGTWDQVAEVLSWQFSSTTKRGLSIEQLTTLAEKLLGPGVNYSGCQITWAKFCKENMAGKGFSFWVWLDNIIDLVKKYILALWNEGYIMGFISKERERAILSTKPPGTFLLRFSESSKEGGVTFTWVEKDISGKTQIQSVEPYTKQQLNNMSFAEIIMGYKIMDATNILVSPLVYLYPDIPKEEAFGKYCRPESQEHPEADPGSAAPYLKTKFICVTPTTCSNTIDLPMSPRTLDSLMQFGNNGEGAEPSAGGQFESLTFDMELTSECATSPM

Row | SMILES | DC50 [1] [µM] | DC50 (read-out: STAT3 HiBiT A549 degradation 24 h: Average external-Abs DC50; A549, 24 h) [µM]
1 | Cc1ncsc1-c1ccc(CNC(=O)[C@@H]2C[C@@H](O)CN2C(=O)[C@@H](NC(=O)CCCCCCCCOC[C@H](CCC(N)=O)NC(=O)[C@@H]2Cc3cccc4c3N2C(=O)[C@@H](NC(=O)c2cc3cc(C(=O)P(=O)(O)O)ccc3[nH]2)CC4)C(C)(C)C)cc1 [Compound I-154] | > 1 | 
2 | Cc1ncsc1-c1ccc(CNC(=O)[C@@H]2C[C@@H](O)CN2C(=O)[C@@H](NC(=O)CCCCCCCOC[C@H](CCC(N)=O)NC(=O)[C@@H]2Cc3cccc4c3N2C(=O)[C@@H](NC(=O)c2cc3cc(C(=O)P(=O)(O)O)ccc3[nH]2)CC4)C(C)(C)C)cc1 [Compound I-155] | > 1 | 
3 | Cn1c(=O)n(C2CCC(=O)NC2=O)c2ccc(CCc3ccccc3CCC(=O)N3CC[C@H]4CC[C@@H](C(=O)N[C@@H](CCC(N)=O)C(=O)NC(c5ccccc5)c5ccccc5)N4C(=O)[C@@H](NC(=O)c4cc5cc(C(=O)P(=O)(O)O)ccc5[nH]4)C3)cc21 (stereo partly drawn) [Compound I-156, diammonium 2-[[(5S,8S,10aR)-8-[[(1S)-3-carbamoyl-1-(diphenylmethylcarbamoyl)propyl]carbamoyl]-3-[3-(2-[2-[1-(2,6-dioxopiperidin-3-yl)-3-methyl-2-oxo-1,3-benzodiazol-5-yl]ethyl]phenyl)propanoyl]-6-oxo-octahydropyrrolo[1,2-a][1,5]diazocin-5-yl]carbamoyl]-1H-indole-5-carbonylphosphonate] |  | 0.1 to 1
4 | Cn1c(=O)n(C2CCC(=O)NC2=O)c2ccc(CN3CCN(CC(=O)N4CC[C@H]5CC[C@@H](C(=O)N[C@@H](CCC(N)=O)C(=O)NC(c6ccccc6)c6ccccc6)N5C(=O)[C@@H](NC(=O)c5cc6cc(C(=O)P(=O)(O)O)ccc6[nH]5)C4)CC3)cc21 (stereo partly drawn) [Compound I-157, 2-[[(5S,8S,10aR)-8-[[(1S)-3-carbamoyl-1-(diphenylmethylcarbamoyl)propyl]carbamoyl]-3-[2-(4-[[1-(2,6-dioxopiperidin-3-yl)-3-methyl-2-oxo-1,3-benzodiazol-5-yl]methyl]piperazin-l-yl)acetyl]-6-oxo-octahydropyrrolo[1,2-a][1,5]diazocin-5-yl]carbamoyl]-1H-indole-5-carbonylphosphonic acid] | 0.1 to 1 | 
5 | Cn1c(=O)n(C2CCC(=O)NC2=O)c2ccc(CC3CCN(CC(=O)N4CC[C@H]5CC[C@@H](C(=O)N[C@@H](CCC(N)=O)C(=O)NC(c6ccccc6)c6ccccc6)N5C(=O)[C@@H](NC(=O)c5cc6cc(C(=O)P(=O)(O)O)ccc6[nH]5)C4)CC3)cc21 (stereo partly drawn) [Compound I-158, 2-[[(5S,8S,10aR)-8-[[(1S)-3-carbamoyl-1-(diphenylmethylcarbamoyl)propyl]carbamoyl]-3-[2-(4-[[1-(2,6-dioxopiperidin-3-yl)-3-methyl-2-oxo-1,3-benzodiazol-5-yl]methyl]piperidin-1-yl)acetyl]-6-oxo-octahydropyrrolo[1,2-a][1,5]diazocin-5-yl]carbamoyl]-1H-indole-5-carbonylphosphonic acid] | > 1 | 
6 | Cc1ncsc1-c1ccc(CNC(=O)[C@@H]2C[C@@H](O)CN2C(=O)[C@@H](NC(=O)CCCCCC#CCOC[C@H](CCC(N)=O)NC(=O)[C@@H]2Cc3cccc4c3N2C(=O)[C@@H](NC(=O)c2cc3cc(C(=O)P(=O)(O)O)ccc3[nH]2)CC4)C(C)(C)C)cc1 [Compound I-159] | 0.1 to 1 | 
7 | Cc1ncsc1-c1ccc(CNC(=O)[C@@H]2C[C@@H](O)CN2C(=O)[C@@H](NC(=O)CCC2CCN(c3ccc(CO[C@H](C)[C@H](CCC(N)=O)NC(=O)[C@@H]4Cc5cccc6c5N4C(=O)[C@@H](NC(=O)c4cc5cc(C(=O)P(=O)(O)O)ccc5[nH]4)CC6)cc3)CC2)C(C)(C)C)cc1 [Compound I-160, diammonium 2-[[(2S,11S)-2-[[(3S,4R)-1-carbamoyl-4-([4-[4-(2-[[(2S)-1-[(2S,4R)-4-hydroxy-2-([[4-(4-methyl-1,3-thiazol-5-yl)phenyl]methyl]carbamoyl)pyrrolidin-1-yl]-3,3-dimethyl-1-oxobutan-2-yl]carbamoyl]ethyl)piperidin-1-yl]phenyl]methoxy)pentan-3-yl]carbamoyl]-12-oxo-1-azatricyclo[6.4.1.0^4,13]]trideca-4(13),5,7-trien-11-yl]carbamoyl]-1H-indole-5-carbonylpho sphonate] | > 1 | 
8 | Cc1ncsc1-c1ccc(CNC(=O)[C@@H]2C[C@@H](O)CN2C(=O)[C@@H](NC(=O)C2CCN(c3ccc(CO[C@H](C)[C@H](CCC(N)=O)NC(=O)[C@@H]4Cc5cccc6c5N4C(=O)[C@@H](NC(=O)c4cc5cc(C(=O)P(=O)(O)O)ccc5[nH]4)CC6)cc3)CC2)C(C)(C)C)cc1 [Compound I-161] | > 1 | 
9 | Cc1ncsc1-c1ccc(CNC(=O)[C@@H]2C[C@@H](O)CN2C(=O)[C@@H](NC(=O)CC2CCN(c3ccc(CO[C@H](C)[C@H](CCC(N)=O)NC(=O)[C@@H]4Cc5cccc6c5N4C(=O)[C@@H](NC(=O)c4cc5cc(C(=O)P(=O)(O)O)ccc5[nH]4)CC6)cc3)CC2)C(C)(C)C)cc1 [Compound I-162, diammonium 2-[[(2S,11S)-2-[[(3S,4R)-1-carbamoyl-4-([4-[4-([[(2S)-1-[(2S,4R)-4-hydroxy-2-([[4-(4-methyl-1,3-thiazol-5-yl)phenyl]methyl]carbamoyl)pyrrolidin-1-yl]-3,3-dimethyl-1-oxobutan-2-yl]carbamoyl]methyl)piperidin-1-yl]phenyl]methoxy)pentan-3-yl]carbamoyl]-12-oxo-1-azatricyclo[6.4.1.0^[4,13]]trideca-4(13),5,7-trien-11-yl]carbamoyl]-1H-indole-5-carbonylphosphonate] | > 1 | 
10 | Cc1ncsc1-c1ccc(CNC(=O)[C@@H]2C[C@@H](O)CN2C(=O)[C@@H](NC(=O)CC2CC(Cc3ccc(CO[C@H](C)[C@H](CCC(N)=O)NC(=O)[C@@H]4Cc5cccc6c5N4C(=O)[C@@H](NC(=O)c4cc5cc(C(=O)P(=O)(O)O)ccc5[nH]4)CC6)cc3)C2)C(C)(C)C)cc1 (stereo partly shown) [Compound I-163] | > 1 | 
11 | Cc1ncsc1-c1ccc(CNC(=O)[C@@H]2C[C@@H](O)CN2C(=O)[C@@H](NC(=O)CCCCCc2cccc(OC[C@H](CCC(N)=O)NC(=O)[C@@H]3Cc4cccc5c4N3C(=O)[C@@H](NC(=O)c3cc4cc(C(=O)P(=O)(O)O)ccc4[nH]3)CC5)c2)C(C)(C)C)cc1 [Compound I-164, 2-[[(2S,11S)-2-[[(2S)-4-carbamoyl-1-[3-(5-[[(2S)-1-[(2S,4R)-4-hydroxy-2-([[4-(4-methyl-1,3-thiazol-5-yl)phenyl]methyl]carbamoyl)pyrrolidin-1-yl]-3,3-dimethyl-1-oxobutan-2-yl]carbamoyl]pentyl)phenoxy]butan-2-yl]carbamoyl]-12-oxo-1-azatricyclo[6.4.1.0^[4,13]]trideca-4(13),5,7-trien-11-yl]carbamoyl]-1H-indole-5-carbonylphosphonic acid] | 0.01 to 0.1 | 
12 | CC(=O)N1CC[C@H]2CC[C@@H](C(=O)N[C@@H](CCC(N)=O)[C@@H](C)OCc3ccc(CCCCC(=O)N[C@H](C(=O)N4C[C@H](O)C[C@H]4C(=O)NCc4ccc(-c5scnc5C)cc4)C(C)(C)C)cc3)N2C(=O)[C@@H](NC(=O)c2cc3cc(C(=O)P(=O)(O)O)ccc3[nH]2)C1 [Compound I-165] | 0.1 to 1 | 
13 | Cn1c(=O)n(C2CCC(=O)NC2=O)c2ccc(C[C@H]3CC[C@H](CC(=O)N4CC[C@H]5CC[C@@H](C(=O)N[C@@H](CCC(N)=O)C(=O)NC(c6ccccc6)c6ccccc6)N5C(=O)[C@@H](NC(=O)c5cc6cc(C(=O)P(=O)(O)O)ccc6[nH]5)C4)CC3)cc21 (stereo partly drawn) [Compound I-166, 2-[[(5S,8S,10aR)-8-[[(1S)-3-carbamoyl-1-(diphenylmethylcarbamoyl)propyl]carbamoyl]-6-oxo-3-[2-[(1r, 4r)-4-[[1-(2,6-dioxopiperidin-3-yl)-3-methyl-2-oxo-1,3-benzodiazol-5-yl]methyl]cyclohexyl]acetyl]-octahydropyrrolo[1,2-a][1,5]diazocin-5-yl]carbamoyl]-1H-indole-5-carbonylphosphonic acid] | 0.01 to 0.1 | 
14 | Cn1c(=O)n(C2CCC(=O)NC2=O)c2ccc(C[C@H]3CC[C@H](CCC(=O)N4CC[C@H]5CC[C@@H](C(=O)N[C@@H](CCC(N)=O)C(=O)NC(c6ccccc6)c6ccccc6)N5C(=O)[C@@H](NC(=O)c5cc6cc(C(=O)P(=O)(O)O)ccc6[nH]5)C4)CC3)cc21 (stereo partly shown) [Compound I-167] | 0.1 to 1 | 
15 | Cn1c(=O)n(C2CCC(=O)NC2=O)c2ccc(N3CCN(CCCC(=O)N4CC[C@H]5CC[C@@H](C(=O)N[C@@H](CCC(N)=O)C(=O)NC(c6ccccc6)c6ccccc6)N5C(=O)[C@@H](NC(=O)c5cc6cc(C(=O)P(=O)(O)O)ccc6[nH]5)C4)CC3)cc21 (stereo partly drawn) [Compound I-168, 2-[[(5S,8S,10aR)-8-[[(1S)-3-carbamoyl-1-(diphenylmethylcarbamoyl)propyl]carbamoyl]-3-(4-[4-[1-(2,6-dioxopiperidin-3-yl)-3-methyl-2-oxo-1,3-benzodiazol-5-yl]piperazin-1-yl]butanoyl)-6-oxo-octahydropyrrolo[1,2-a][1,5]diazocin-5-yl]carbamoyl]-1H-indole-5-carbonylphosphonic acid] | > 1 | 
16 | Cn1c(=O)n(C2CCC(=O)NC2=O)c2ccc(C3CCN(CCCC(=O)N4CC[C@H]5CC[C@@H](C(=O)N[C@@H](CCC(N)=O)C(=O)NC(c6ccccc6)c6ccccc6)N5C(=O)[C@@H](NC(=O)c5cc6cc(C(=O)P(=O)(O)O)ccc6[nH]5)C4)CC3)cc21 (stereo partly drawn) [Compound I-169, 2-[[(5S,8S,10aR)-8-[[(1S)-3-carbamoyl-1-(diphenylmethylcarbamoyl)propyl]carbamoyl]-3-(4-[4-[1-(2,6-dioxopiperidin-3-yl)-3-methyl-2-oxo-1,3-benzodiazol-5-yl]piperidin-1-yl]butanoyl)-6-oxo-octahydropyrrolo[1,2-a][1,5]diazocin-5-yl]carbamoyl]-1H-indole-5-carbonylphosphonic acid] | 0.1 to 1 | 
